# Laboratory results: patent US20130217664A1, “NOVEL COMPOUNDS USEFUL FOR THE TREATMENT OF DEGENERATIVE AND INFLAMMATORY DISEASES” (priority 2012, published 2013)
# Tests used:
# [1] = system: CTLL-2 cell line; test: CTLL2 viability assay; format: cell-based; conditions: Mus musculus, IL-2 dependent CTLL2 viability, 24 h, ATP-lite
# Description: The protocol describes the methods to analyse the activity of compounds on their ability to sustain the IL2-dependent viability of CTLL2.
# Final DMSO concentration was 0.1%.
# [2] = system: BA/F3 cell line; test: BA/F3 viability assay; conditions: Mus musculus, BaF3, 48 h, read-out: BA/F3 IC50
# [3] = biological target: T1, human TYK2 (Homo sapiens, UniProt P29597); test: TYK2 inhibition assay; format: biochemical; conditions: recombinant human TYK2 catalytic domain, polyGT substrate
# T1 construct: catalytic domain (amino acids 871-1187; catalog number 08-147); purchased Carna Biosciences 08-147
# T1 sequence (P29597 871-1187): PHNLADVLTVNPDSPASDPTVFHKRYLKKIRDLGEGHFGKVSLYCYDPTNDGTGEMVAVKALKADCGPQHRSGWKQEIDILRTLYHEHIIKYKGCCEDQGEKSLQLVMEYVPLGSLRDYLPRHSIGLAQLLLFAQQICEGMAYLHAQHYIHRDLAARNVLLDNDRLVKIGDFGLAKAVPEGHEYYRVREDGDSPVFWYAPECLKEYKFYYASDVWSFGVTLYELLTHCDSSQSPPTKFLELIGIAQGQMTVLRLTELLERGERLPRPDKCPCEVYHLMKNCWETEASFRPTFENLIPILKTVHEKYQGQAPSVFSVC
# Procedure, shortened: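 Radiometric kinase reaction run 90 min at 30 °C, stopped with phosphoric acid, washed and scintillation-counted.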
# [4] = biological target: T2, human JAK2 (Homo sapiens, UniProt O60674); test: JAK2 inhibition assay (polyGT substrate / Ulight-JAK1 peptide); format: biochemical; conditions: recombinant human JAK2 catalytic domain; polyGT or Ulight-JAK1 peptide assay
# T2 construct: catalytic domain (amino acids 808-1132; catalog number PV4210); GST; purchased Invitrogen PV4210
# T2 sequence (O60674 808-1132): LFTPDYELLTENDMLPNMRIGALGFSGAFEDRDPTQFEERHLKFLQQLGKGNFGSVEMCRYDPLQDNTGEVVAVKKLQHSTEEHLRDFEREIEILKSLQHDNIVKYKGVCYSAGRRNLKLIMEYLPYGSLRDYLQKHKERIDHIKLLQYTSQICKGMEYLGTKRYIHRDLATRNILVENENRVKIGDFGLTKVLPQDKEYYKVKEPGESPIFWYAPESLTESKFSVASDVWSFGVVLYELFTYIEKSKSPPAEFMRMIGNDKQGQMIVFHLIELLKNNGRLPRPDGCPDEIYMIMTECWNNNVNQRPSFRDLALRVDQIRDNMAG
# Procedure, shortened: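 Two JAK2 formats: a ^33P-ATP polyGT assay (1 μM cold ATP, 90 min, 30° C., cpm read-out) and a Ulight-JAK1 peptide assay read by Europium-anti-phosphotyrosine fluorescence after 60 min at room temperature.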
structure (smiles),measurement,setting,value
"CCc1cc(CN(C)S(C)(=O)=O)c(F)cc1N(C)c1cc2c(cn1)ncn2C [Compound 319, N-{5-Ethyl-2-fluoro-4-[methyl-(1-methyl-1H-imidazo[4,5-c]pyridin-6-yl)-amino]-benzyl}-N-methyl-methanesulfonamide]",IC50,[1],> 1000 nM
same,IC50,[2],1000 to 5000 nM
same,IC50,[3],0.01 to 100 nM
same,IC50,[4],0.01 to 100 nM
"CCc1cc(CNS(C)(=O)=O)cc(F)c1N(C)c1cc2c(cn1)ncn2C [Compound 323, N-{3-Ethyl-5-fluoro-4-[methyl-(1-methyl-1H-imidazo[4,5-c]pyridin-6-yl)-amino]-benzyl}-methanesulfonamide]",IC50,[1],> 1000 nM
same,IC50,[2],> 5000 nM
same,IC50,[3],0.01 to 100 nM
same,IC50,[4],0.01 to 100 nM
"CCc1cc(CNS(C)(=O)=O)c(F)cc1N(C)c1cc2c(cn1)ncn2C [Compound 325, N-{5-Ethyl-2-fluoro-4-[methyl-(1-methyl-1H-imidazo[4,5-c]pyridin-6-yl)-amino]-benzyl}-methanesulfonamide]",IC50,[1],> 1000 nM
same,IC50,[2],> 5000 nM
same,IC50,[3],101 to 500 nM
same,IC50,[4],0.01 to 100 nM
"CCc1cc(CNS(=O)(=O)C(F)F)c(F)cc1N(C)c1cc2c(cn1)ncn2C [Compound 327, N-{5-Ethyl-2-fluoro-4-[methyl-(1-methyl-M-imidazo[4,5-c]pyridin-6-yl)-amino]-benzyl}-C,C-difluoro-methanesulfonamide]",IC50,[1],501 to 1000 nM
same,IC50,[2],1000 to 5000 nM
same,IC50,[3],0.01 to 100 nM
same,IC50,[4],0.01 to 100 nM
"CCc1cc(C2CN(S(C)(=O)=O)C2)ncc1N(C)c1cc2c(cn1)ncn2C [Compound 328, [4-Ethyl-6-(1-methanesulfonyl-azetidin-3-yl)-pyridin-3-yl]-methyl-(1-methyl-1H-imidazo[4,5-c]pyridin-6-yl)-amine]",IC50,[1],> 1000 nM
same,IC50,[2],> 5000 nM
same,IC50,[3],501 to 1000 nM
same,IC50,[4],101 to 500 nM
"CCc1cc(C2CN(S(=O)(=O)C(F)F)C2)ncc1N(C)c1cc2c(cn1)ncn2C [Compound 329, {6-[1-(Difluoro-methanesulfonyl)-azetidin-3-yl]-4-ethyl-pyridin-3-yl}-methyl-(1-methyl-1H-imidazo[4,5-c]pyridin-6-yl)-amine]",IC50,[1],501 to 1000 nM
same,IC50,[2],> 5000 nM
same,IC50,[3],> 1000 nM
same,IC50,[4],0.01 to 100 nM
"CCc1cc(C2CN(C(=O)C(F)F)C2)ncc1N(C)c1cc2c(cn1)ncn2C [Compound 333, 1-(3-{4-Ethyl-5-[methyl-(1-methyl-1H-imidazo[4,5-c]pyridin-6-yl)-amino]-pyridin-2-yl}-azetidin-1-yl)-2,2-difluoro-ethanone]",IC50,[1],> 1000 nM
same,IC50,[2],> 5000 nM
same,IC50,[3],501 to 1000 nM
same,IC50,[4],101 to 500 nM
"CCc1cc(C2CN(C(=O)C(F)(F)F)C2)ncc1N(C)c1cc2c(cn1)ncn2C [Compound 334, 1-(3-{4-Ethyl-5-[methyl-(1-methyl-1H-imidazo[4,5-c]pyridin-6-yl)-amino]-pyridin-2-yl}-azetidin-1-yl)-2,2,2-trifluoro-ethanone]",IC50,[1],> 1000 nM
same,IC50,[2],> 5000 nM
same,IC50,[3],501 to 1000 nM
same,IC50,[4],0.01 to 100 nM
